Test results from US20260272889A1, “COGNITIVE FUNCTION-IMPROVING AGENT AND PHARMACEUTICAL COMPOSITION FOR TREATING OR PREVENTING COGNITIVE DYSFUNCTION” (TOHOKU UNIVERSITY, priority 2022, published 2026).

Key:
[1] = system: mouse microglial cell line MG6; test: qRT-PCR of cytokine expression in microglial cell line MG6 (Example 1); type: cell-based; details: MG6 cells, 0.03 μM or 0.1 μM, 24 hours, qRT-PCR normalized with Gapdh
Procedure: A mouse microglial cell line MG6 was used for experiments. MG6 was seeded on a 12-well plate at 5×10^4 cells/well using a DMEM (high glucose) medium containing 10% of FBS, 10 μg/ml of insulin, and 0.1 mM of 2-mercaptoethanol. The seeded MG6 was cultured in an incubator at 37° C. and a CO2 concentration of 5%. After 24 hours from the start of culture, drugs were added as follows. First, pemafibrate as the PPARα agonist was diluted with DMEM (high glucose) medium to have a final concentration of 0.03 μM or 0.1 μM using dimethylsulfoxide (DMSO) as a solvent. Then, the total amount of the medium of the well in which MG6 was seeded was replaced with the medium containing 0.03 μM or 0.1 μM of pemafibrate, or a medium to which DMSO was added as a control. Cells were collected additional 24 hours after the medium replacement.
Total RNA was extracted from the collected cells using RNeasy Mini kit (Qiagen). Reverse transcription of the total RNA was performed using GeneAce cDNA Synthesis Kit (FUJIFILM Wako Pure Chemical Corporation). THUNDERBIRD (trade name) SYBR qPCR Mix (Toyobo) was used to perform qRT-PCR by ABI7500 Real Time PCR system (Thermo Fisher Scientific). Relative gene expression was calculated by a ΔCt method and normalized with Gapdh. The following primers were used.

[2] = system: schizophrenic model (MK-801) mice; test: Novel object recognition test (NORT), MK-801 schizophrenic model, Example 2; type: in vivo, C57BL/6J mice
Procedure: (§1) Inbred C57BL/6J (B6J) mice were purchased from Charles River Laboratories Japan, Inc. (Kanagawa, Japan). The mice were housed four by four in standard cages and reared on a 12-hour light/dark cycle (lights on at 8:00 and off at 20:00) in a room where temperature and humidity were controlled. The mice had free access to standard laboratory chow MF (ORIENTAL YEAST Co., Ltd., Tokyo, Japan) and water. No special environmental enrichment was provided in the home cage. Behavioral testing was performed using males from 10:00 to 18:00.
(§2) MK-801 (FUJIFILM Wako Pure Chemical Corporation, Osaka, Japan) was diluted with physiological saline to a concentration of 1 mg/ml to prepare a stock solution, which was stored at −80° C. The MK-801 stock solution (1 mg/ml) was then further diluted with physiological saline to 20 μg/ml and stored at −20° C. as a solution for administration. The MK-801 administration solution (20 μg/ml) was thawed on the day of administration and used for administration to mice. The MK-801 administration solution (20 μg/ml) was used within one week after freezing. MK-801 is an antagonist of an NMDA (glutamatergic N-methyl-D-aspartate) receptor. Chronic administration of MK-801 to mice causes a decrease in spine density and abnormal behavior similar to schizophrenia in mice. Mice to which MK-801 was chronically administered were used as a disease model of schizophrenia. Mice to which physiological saline was administered instead of MK-801 were used as a healthy model.
(§3) Pemafibrate (Toronto Research Chemicals, Tronto, Canada) was diluted with DMSO to a concentration of 30 mg/ml and stored as a stock solution at −80° C. On the day of administration, the pemafibrate stock solution (30 mg/ml) was diluted with corn oil (Sigma-Aldrich, USA) to a concentration of 0.1 mg/ml and used for administration to mice. As a control, a DMSO solution prepared by diluting DMSO in corn oil was used for administration to mice (DMSO:corn oil=1:300).
(§4) MK-801 (0.2 mg/kg/day) or physiological saline was intraperitoneally administered to 6-week-old C57BL/6J mice (males) once a day for 2 weeks. […]

[3] = system: schizophrenic model (MK-801) mice; test: Spine density analysis of prefrontal cortex pyramidal cells, Example 2; type: in vivo, C57BL/6J mice
Procedure: as §1, §2, §3, §4

[4] = system: schizophrenic model (MK-801) mice; test: NORT, examination of therapeutic method, Example 3; type: in vivo, C57BL/6J mice; details: FIG. 9
Procedure: (§5) Animals and reagents the same as in Example 2 were used.
(§6) MK-801 (0.2 mg/kg/day) or physiological saline was intraperitoneally administered to 6-week-old C57BL/6J mice (males) once a day for 2 weeks. Mice to which MK-801 was administered and mice to which physiological saline was administered were each divided into two groups, to which pemafibrate (0.3 mg/kg/day) or solvent (DMSO solution) was orally administered once a day for one week.
(§7) NORT was performed using a group of 12 mice. NORT was performed in a manner similar to that in Example 1.
(§8) In the examination of the therapeutic method, a schizophrenic model in which MK-801 was administered to 6-week-old mice for 2 weeks was used (see upper parts in FIGS. 9 and 10). In the healthy model, physiological saline (saline) was administered instead of MK-801.

[5] = system: schizophrenic model (MK-801) mice; test: Spine density analysis, examination of therapeutic method, Example 3; type: in vivo, C57BL/6J mice
Procedure: as §5, §6
(§9) Sampling for spine density analysis was performed after completion of NORT. Spine density analysis was performed using a group of 6 mice. Spine density analysis was performed in a manner similar to that in Example 2.
as §8

[6] = system: schizophrenic model (MK-801) mice; test: NORT, examination of prophylaxis, Example 3; type: in vivo, C57BL/6J mice; details: FIG. 11
Procedure: as §5
(§10) Examination of prophylaxis: Pemafibrate (0.3 mg/kg/day) or solvent (DMSO solution) was orally administered to 6-week-old C57BL/6J mice (males) once a day for 2 weeks. Mice to which pemafibrate was administered and mice to which DMSO was administered were each divided into two groups, to which MK-801 (0.2 mg/kg/day) or physiological saline was intraperitoneally administered once a day for two weeks.
as §7
(§11) In the examination of the prophylaxis, pemafibrate was administered to 6-week-old mice for 2 weeks, and then MK-801 was administered thereto for 2 weeks (see upper parts in FIG. 11 and FIG. 12). In the healthy model, physiological saline (saline) was administered instead of MK-801.

[7] = system: schizophrenic model (MK-801) mice; test: Spine density analysis, examination of prophylaxis, Example 3; type: in vivo, C57BL/6J mice; details: FIG. 12
Procedure: as §5, §10, §9, §11

[8] = schizophrenic model (MK-801(+)), pemafibrate 0.3 mg/kg/day oral 1 week, FIG. 8
[9] = prophylaxis: pemafibrate 0.3 mg/kg/day oral 2 weeks, then MK-801 2 weeks, group (4)

CC[C@@H](Oc1cccc(CN(CCCOc2ccc(OC)cc2)c2nc3ccccc3o2)c1)C(=O)O [pemafibrate]
expression of inflammatory cytokines (IL-1b, Tnfa) ([1]; FIG. 1): inhibits the expression
expression of anti-inflammatory cytokines (IL-4, IL-10) ([1]; FIG. 2): inhibits the expression
NORT dwell time around new object compared with familiar object ([2]; healthy model (MK-801(-)), pemafibrate 0.3 mg/kg/day oral 1 week, FIG. 6): significantly longer
NORT dwell time around new object compared with familiar object ([2]; schizophrenic model (MK-801(+)), pemafibrate 0.3 mg/kg/day oral 1 week after MK-801, FIG. 6): significantly longer
spine density compared with healthy model [3, 8]: no significant difference
spine density compared with pemafibrate non-administration group of schizophrenic model [3, 8]: significantly increased
NORT dwell time around new object compared with familiar object ([4]; therapeutic: healthy models (saline), with pemafibrate): significantly longer
NORT dwell time around new object compared with familiar object ([4]; therapeutic: schizophrenic model group (4), pemafibrate 0.3 mg/kg/day oral 1 week after MK-801 2 weeks): significantly longer
effect on spine density of schizophrenic model ([5]; therapeutic: group (4) vs non-administration group (3), FIG. 10): restores the spine density
spine density compared with healthy models ([5]; therapeutic: schizophrenic model group (4), pemafibrate 0.3 mg/kg/day oral 1 week after MK-801, FIG. 10): no significant difference
NORT dwell time around new object compared with familiar object ([6]; prophylaxis: healthy models (saline), with pemafibrate): significantly longer
NORT dwell time around new object compared with familiar object [6, 9]: significantly longer
decrease in spine density caused by MK-801 ([7]; prophylaxis: group (4) vs non-administration group (3)): suppressed
spine density compared with healthy models [7, 9]: no significant difference

C[C@]12N[C@H](Cc3ccccc31)c1ccccc12 [MK-801]
NORT dwell time, new object vs familiar object ([2]; MK-801 0.2 mg/kg/day i.p. 2 weeks, no pemafibrate, FIG. 5): no significant difference
spine density compared with healthy model (saline) ([3]; MK-801 0.2 mg/kg/day i.p. 2 weeks, no pemafibrate, FIG. 7): significantly reduced
